Patent publication US20250353864A1, “INDAZOLE CONTAINING MACROCYCLES AND THEIR USE” (BLOSSOMHILL THERAPEUTICS, INC., priority 2022, published 2025)

Experiments:
Type in all cases: biochemical
EGFR WT = EGFR WT (Homo sapiens (Human), UniProt P00533); assay: HotSpot radiometric kinase assay (Reaction Biology), EGFR WT; details: 10 μM ATP
In short: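 Compounds were preincubated ~20 min with kinase/substrate in pH 7.5 Hepes buffer (MgCl2, EGTA, Brij35, BSA, Na3VO4, DTT, 1% DMSO), then ATP plus 33P-ATP was added to 10 μM final. After 120 min at room temperature, reactions were spotted on P81 filters and washed; IC50 values came from curve fits.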

[1] = target: EGFR Δ746-750/C797S mutant (Homo sapiens (Human), UniProt P00533, C797S/DEL746-750); assay: HotSpot radiometric kinase assay, EGFR Δ746-750/C797S mutant; details: 10 μM ATP
In short: (§1)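 10 μM ATP (33P-labelled, final); 120 min RT; P81 filter capture, 0.75% phosphoric acid washes. Cpd preincubated ~20 min with enzyme/substrate, 20 mM Hepes pH 7.5, 10 mM MgCl2, 1% DMSO. IC50 by curve fit.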

EGFR (D770_N771insNPG) = EGFR (D770_N771insNPG) (Homo sapiens (Human), UniProt P00533, INS770NPG); assay: HotSpot radiometric kinase assay, EGFR (D770_N771insNPG); details: 10 μM ATP, read-out: EGFR (Δ770_N771insNPG) IC50
In short: as §1

EGFR L858R mutant = EGFR L858R mutant (Homo sapiens (Human), UniProt P00533, L858R); assay: HotSpot radiometric kinase assay, EGFR L858R mutant; details: 10 μM ATP
In short: as §1

EGFR Δ746-750 mutant = EGFR Δ746-750 mutant (Homo sapiens (Human), UniProt P00533, DEL746-750); assay: HotSpot radiometric kinase assay, EGFR Δ746-750 mutant; details: 10 μM ATP
In short: as §1

ALK = ALK (Homo sapiens (Human), UniProt Q9UM73); assay: HotSpot radiometric kinase assay, inhibition of ALK kinase activity; details: 10 μM ATP
Protocol: Briefly, specific kinase/substrate pairs along with required cofactors were prepared in reaction buffer; 20 mM Hepes pH 7.5, 10 mM […], 1 mM EGTA, 0.02% Brij35, 0.02 mg/ml BSA, 0.1 mM Na3VO4, 2 mM DTT, 1% DMSO. Compounds were delivered into the reaction, followed […] later by addition of a mixture of ATP (Sigma, St. Louis MO) and ^33P ATP (Perkin Elmer, Waltham MA) to a final concentration of 10 μM. Reactions were carried out at room temperature for 120 min, followed by spotting of the reactions onto P81 ion exchange filter paper (Whatman Inc., Piscataway, NJ). Unbound phosphate was removed by extensive washing of filters in 0.75% phosphoric acid. […] IC50 values and curve fits were obtained using Prism (GraphPad Software).

[2] = target: EGFR L858R/T790M/C797S mutant (Homo sapiens (Human), UniProt P00533, C797S/L858R/T790M); assay: HotSpot radiometric kinase assay, EGFR L858R/T790M/C797S mutant; details: 10 μM ATP
In short: as §1

EGFR L858R/T790M mutant = EGFR L858R/T790M mutant (Homo sapiens (Human), UniProt P00533, L858R/T790M); assay: HotSpot radiometric kinase assay, EGFR L858R/T790M mutant; details: 10 μM ATP
In short: as §1

CLK2 = CLK2 (Homo sapiens (Human), UniProt P49760); assay: Inhibition of CLK2 kinase activity evaluated at Nanosyn (ADP-Glo); details: ADP-Glo luminescence
In short: (§2)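 Percent inhibition derived from luminescent ADP detection (ADP-Glo), normalised to DMSO-only and enzyme-free wells. Reactions ran in HEPES pH 7.5 buffer with Mg2+, Triton X-100 and BSA, 1% DMSO, ATP-initiated, for an assay-specific time.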

CLK1 = CLK1 (Homo sapiens (Human), UniProt P49759); assay: Inhibition of CLK1 kinase activity evaluated at Nanosyn (ADP-Glo); details: ADP-Glo luminescence
In short: as §2

CLK4 = CLK4 (Homo sapiens (Human), UniProt Q9HAZ1); assay: Inhibition of CLK4 kinase activity evaluated at Nanosyn (ADP-Glo); details: ADP-Glo luminescence
In short: as §2

CLK3 = CLK3 (Homo sapiens (Human), UniProt P49761); assay: Inhibition of CLK3 kinase activity evaluated at Nanosyn (ADP-Glo); details: ADP-Glo luminescence
In short: as §2

CLK1, sequence (P49759 whole entry): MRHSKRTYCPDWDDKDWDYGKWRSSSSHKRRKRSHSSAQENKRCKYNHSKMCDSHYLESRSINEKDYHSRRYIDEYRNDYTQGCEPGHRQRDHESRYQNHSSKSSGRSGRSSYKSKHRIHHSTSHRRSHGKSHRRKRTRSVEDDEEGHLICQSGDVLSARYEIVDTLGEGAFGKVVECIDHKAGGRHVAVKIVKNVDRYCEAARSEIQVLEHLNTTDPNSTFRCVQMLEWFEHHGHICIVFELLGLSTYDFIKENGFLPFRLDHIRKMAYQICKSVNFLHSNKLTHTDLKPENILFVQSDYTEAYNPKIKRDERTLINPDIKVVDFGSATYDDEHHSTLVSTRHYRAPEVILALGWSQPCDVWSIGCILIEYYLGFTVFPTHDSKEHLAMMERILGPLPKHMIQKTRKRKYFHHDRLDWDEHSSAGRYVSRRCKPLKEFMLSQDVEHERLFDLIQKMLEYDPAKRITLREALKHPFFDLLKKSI
CLK3, sequence (P49761 whole entry): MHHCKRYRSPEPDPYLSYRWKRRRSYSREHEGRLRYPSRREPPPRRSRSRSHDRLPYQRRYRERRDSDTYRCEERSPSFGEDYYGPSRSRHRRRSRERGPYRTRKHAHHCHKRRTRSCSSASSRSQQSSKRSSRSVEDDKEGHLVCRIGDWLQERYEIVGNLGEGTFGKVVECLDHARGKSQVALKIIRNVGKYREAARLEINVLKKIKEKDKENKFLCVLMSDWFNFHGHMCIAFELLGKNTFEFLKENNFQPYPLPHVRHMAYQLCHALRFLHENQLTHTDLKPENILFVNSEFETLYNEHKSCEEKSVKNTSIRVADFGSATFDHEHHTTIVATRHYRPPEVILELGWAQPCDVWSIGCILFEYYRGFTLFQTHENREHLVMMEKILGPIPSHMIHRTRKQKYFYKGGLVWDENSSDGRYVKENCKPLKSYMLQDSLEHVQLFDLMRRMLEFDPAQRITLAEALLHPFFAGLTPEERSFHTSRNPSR
EGFR L858R mutant, sequence (P00533 25-1210 L858R): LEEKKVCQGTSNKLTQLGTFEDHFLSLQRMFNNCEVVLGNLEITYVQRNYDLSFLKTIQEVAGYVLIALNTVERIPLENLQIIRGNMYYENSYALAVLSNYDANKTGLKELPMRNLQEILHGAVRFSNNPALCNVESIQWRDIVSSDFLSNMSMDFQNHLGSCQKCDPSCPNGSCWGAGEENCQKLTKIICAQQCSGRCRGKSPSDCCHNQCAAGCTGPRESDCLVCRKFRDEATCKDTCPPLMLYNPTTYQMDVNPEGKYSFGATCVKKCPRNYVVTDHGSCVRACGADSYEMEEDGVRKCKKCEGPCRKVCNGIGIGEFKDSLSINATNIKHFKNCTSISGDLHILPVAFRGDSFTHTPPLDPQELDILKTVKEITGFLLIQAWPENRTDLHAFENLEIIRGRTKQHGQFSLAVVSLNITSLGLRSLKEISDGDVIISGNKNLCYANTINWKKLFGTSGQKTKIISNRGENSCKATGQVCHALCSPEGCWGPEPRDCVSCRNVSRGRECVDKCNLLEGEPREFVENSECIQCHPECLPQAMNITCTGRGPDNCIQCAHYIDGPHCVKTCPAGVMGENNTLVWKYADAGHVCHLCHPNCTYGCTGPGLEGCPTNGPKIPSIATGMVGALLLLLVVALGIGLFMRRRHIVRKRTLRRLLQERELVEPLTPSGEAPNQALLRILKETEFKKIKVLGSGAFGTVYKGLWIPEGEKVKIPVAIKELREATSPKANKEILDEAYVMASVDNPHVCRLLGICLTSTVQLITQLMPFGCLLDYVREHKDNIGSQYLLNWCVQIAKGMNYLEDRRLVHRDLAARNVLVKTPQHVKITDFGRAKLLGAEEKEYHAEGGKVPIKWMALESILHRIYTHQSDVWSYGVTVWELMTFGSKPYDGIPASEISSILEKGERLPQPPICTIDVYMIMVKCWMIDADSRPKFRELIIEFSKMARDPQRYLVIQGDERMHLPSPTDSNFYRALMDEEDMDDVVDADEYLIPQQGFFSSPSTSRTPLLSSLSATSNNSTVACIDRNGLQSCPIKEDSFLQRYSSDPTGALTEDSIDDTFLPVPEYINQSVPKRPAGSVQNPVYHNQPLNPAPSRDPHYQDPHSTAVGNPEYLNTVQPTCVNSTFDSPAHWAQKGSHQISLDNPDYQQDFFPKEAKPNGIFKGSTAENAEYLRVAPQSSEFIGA
EGFR WT, sequence (P00533 25-1210): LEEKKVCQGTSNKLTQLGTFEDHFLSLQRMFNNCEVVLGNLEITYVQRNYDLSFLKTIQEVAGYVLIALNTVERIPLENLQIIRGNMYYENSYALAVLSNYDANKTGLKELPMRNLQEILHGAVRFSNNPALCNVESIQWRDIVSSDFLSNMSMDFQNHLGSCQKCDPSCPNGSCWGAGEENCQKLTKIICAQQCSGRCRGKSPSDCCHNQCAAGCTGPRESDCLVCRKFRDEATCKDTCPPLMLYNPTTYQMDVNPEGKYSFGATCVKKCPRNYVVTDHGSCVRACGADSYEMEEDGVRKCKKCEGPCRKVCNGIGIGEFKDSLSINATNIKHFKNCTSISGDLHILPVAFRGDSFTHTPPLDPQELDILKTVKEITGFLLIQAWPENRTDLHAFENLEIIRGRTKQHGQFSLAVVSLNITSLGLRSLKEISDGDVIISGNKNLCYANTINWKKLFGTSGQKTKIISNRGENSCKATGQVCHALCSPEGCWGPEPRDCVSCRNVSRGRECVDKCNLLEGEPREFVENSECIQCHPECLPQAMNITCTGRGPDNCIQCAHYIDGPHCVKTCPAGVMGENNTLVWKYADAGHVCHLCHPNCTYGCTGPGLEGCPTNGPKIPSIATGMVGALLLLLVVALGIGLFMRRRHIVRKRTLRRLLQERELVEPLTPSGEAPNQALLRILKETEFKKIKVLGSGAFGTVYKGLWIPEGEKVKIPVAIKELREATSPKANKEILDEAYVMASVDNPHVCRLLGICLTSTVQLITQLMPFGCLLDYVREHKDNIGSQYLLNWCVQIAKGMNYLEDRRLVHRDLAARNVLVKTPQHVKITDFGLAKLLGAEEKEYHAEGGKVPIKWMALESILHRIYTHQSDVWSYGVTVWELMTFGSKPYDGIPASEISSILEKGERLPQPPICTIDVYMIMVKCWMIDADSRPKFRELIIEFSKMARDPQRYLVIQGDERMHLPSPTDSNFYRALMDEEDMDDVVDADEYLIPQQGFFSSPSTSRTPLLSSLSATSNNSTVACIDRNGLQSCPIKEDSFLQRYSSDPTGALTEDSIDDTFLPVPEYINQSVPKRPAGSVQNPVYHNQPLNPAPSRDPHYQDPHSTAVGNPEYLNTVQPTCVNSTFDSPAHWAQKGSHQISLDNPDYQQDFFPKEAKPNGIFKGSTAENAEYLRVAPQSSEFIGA
ALK, sequence (Q9UM73 19-1620): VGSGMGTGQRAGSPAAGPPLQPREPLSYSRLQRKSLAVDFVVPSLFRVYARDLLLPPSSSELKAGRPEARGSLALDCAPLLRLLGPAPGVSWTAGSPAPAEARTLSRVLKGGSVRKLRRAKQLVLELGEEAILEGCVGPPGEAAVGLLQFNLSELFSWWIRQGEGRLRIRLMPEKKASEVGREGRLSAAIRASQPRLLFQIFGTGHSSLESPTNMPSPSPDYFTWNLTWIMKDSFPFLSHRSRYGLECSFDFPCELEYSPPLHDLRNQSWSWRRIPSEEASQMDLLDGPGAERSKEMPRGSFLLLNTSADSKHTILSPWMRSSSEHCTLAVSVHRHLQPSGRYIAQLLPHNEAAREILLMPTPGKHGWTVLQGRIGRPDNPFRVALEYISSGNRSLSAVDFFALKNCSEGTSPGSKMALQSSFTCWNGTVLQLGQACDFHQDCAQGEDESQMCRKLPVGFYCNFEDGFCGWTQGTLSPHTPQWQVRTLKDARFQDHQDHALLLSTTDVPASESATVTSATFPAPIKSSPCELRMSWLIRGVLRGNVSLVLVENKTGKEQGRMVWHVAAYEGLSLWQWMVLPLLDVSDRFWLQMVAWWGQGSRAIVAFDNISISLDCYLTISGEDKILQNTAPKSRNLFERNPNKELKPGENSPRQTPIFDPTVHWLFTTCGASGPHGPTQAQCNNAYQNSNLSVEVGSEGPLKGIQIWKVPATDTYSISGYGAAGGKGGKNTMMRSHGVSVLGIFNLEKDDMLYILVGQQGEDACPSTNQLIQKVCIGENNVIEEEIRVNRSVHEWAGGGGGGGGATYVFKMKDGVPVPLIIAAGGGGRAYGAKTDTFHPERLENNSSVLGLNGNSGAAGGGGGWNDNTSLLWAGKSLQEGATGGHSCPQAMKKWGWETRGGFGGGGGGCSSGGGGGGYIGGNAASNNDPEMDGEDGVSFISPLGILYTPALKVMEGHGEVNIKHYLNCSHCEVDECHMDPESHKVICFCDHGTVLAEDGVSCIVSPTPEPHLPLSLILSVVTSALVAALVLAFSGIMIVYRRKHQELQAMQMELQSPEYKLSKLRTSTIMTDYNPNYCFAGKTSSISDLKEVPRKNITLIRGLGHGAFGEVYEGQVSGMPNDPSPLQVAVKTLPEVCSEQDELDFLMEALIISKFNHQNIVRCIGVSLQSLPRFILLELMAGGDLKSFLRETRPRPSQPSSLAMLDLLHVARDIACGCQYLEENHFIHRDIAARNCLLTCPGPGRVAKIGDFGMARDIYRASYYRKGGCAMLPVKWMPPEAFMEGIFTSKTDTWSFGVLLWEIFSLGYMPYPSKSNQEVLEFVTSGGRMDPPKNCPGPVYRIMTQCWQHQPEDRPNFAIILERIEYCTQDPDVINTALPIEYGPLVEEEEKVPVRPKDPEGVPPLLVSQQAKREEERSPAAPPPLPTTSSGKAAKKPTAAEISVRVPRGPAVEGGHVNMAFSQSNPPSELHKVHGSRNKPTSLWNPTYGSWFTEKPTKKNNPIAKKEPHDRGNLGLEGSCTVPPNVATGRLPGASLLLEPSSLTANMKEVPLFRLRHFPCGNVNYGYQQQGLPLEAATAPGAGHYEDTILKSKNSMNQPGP

Compound	IC50 (EGFR WT) [nM]	IC50 [1] [nM]	IC50 (EGFR (D770_N771insNPG)) [nM]	IC50 (EGFR L858R mutant) [nM]	IC50 (EGFR Δ746-750 mutant) [nM]	IC50 (ALK) [nM]	IC50 [2] [nM]	IC50 (EGFR L858R/T790M mutant) [nM]	IC50 (CLK2) [nM]	IC50 (CLK1) [nM]	IC50 (CLK4) [nM]	IC50 (CLK3) [nM]
CCc1nn(C)c2c1/C=C/c1n[nH]c3ccc(cc13)-c1cnn(C)c1O[C@@H](C)COC2 [Example 319, (10S,17E)-16-ethyl-8,10,14-trimethyl-2,8,10,11,13,14-hexahydro-3,5-etheno[1,4]dioxacyclopentadecino[10,11-c:15,14-c′:6,7-c″]tripyrazole]	766	425	1490	182	218	5.05	60.5	24.7	–	–	–	–
Cn1nc(C#N)c2c1COCCOc1c(cnn1C)-c1ccc3[nH]nc(c3c1)/C=C/2 [Example 302, (17E)-8,14-dimethyl-2,8,10,11,13,14-hexahydro-3,5-etheno[1,4]dioxacyclopentadecino[10,11-c:15,14-c′:6,7-c″]tripyrazole-16-carbonitrile]	–	–	–	–	–	19.9	–	–	1000	1.19	1.33	1.23
CCNC(=O)Cn1nc(C)c2c1COCCOc1c(cnn1C)-c1ccc3[nH]nc(c3c1)/C=C/2 [Example 301, 2-[(17E)-8,16-dimethyl-2,10,11,13-tetrahydro-3,5-etheno[1,4]dioxacyclopentadecino[10,11-c:15,14-c′:6,7-c′]tripyrazol-14(8H)-yl]-N-ethylacetamide]	–	–	–	–	–	29	–	–	–	–	–	–
Cc1onc2c1/C=C/c1n[nH]c3ccc(cc13)-c1cnn(C)c1OCCOC2 [Example 320, (17E)-8,16-dimethyl-2,8,10,11-tetrahydro-13H-3,5-ethenodipyrazolo[3′,4′:10,11;4″,3″:14,15] [1,4]dioxacyclopentadecino[6,7-c][1,2]oxazole]	–	–	–	–	–	32.2	–	–	69.7	0.324	0.155	0.2
CCN1Cc2c(c(OC(C)C)nn2C[C@H](C)O)/C=C/c2n[nH]c3ccc(cc23)-c2cnn(C)c2O[C@@H](C)C1 [Ex. 280, (2S)-1-{(10S,17E)-12-ethyl-8,10-dimethyl-16-[(propan-2-yl)oxy]-2,8,10,11,12,13-hexahydro-14H-3,5-ethenotripyrazolo[3,4-f:3′,4′-j:4″,3″-n][1,4]oxazacyclopentadecin-14-yl}propan-2-ol]	–	–	–	–	–	1.08	–	–	0.24	0.52	1.96	242
Cc1nn(CCO)c2c1/C=C/c1n[nH]c3ccc(cc13)-c1cnn(C)c1OCCCO2 [Ex. 22, 2-[(17E)-8,16-dimethyl-2,8,11,12-tetrahydro-10H,14H-3,5-etheno[1,5]dioxacyclopentadecino[10,11-c:15,14-c′:6,7-c″]tripyrazol-14-yl]ethan-1-ol]	158	5.1	94.8	4.49	3.84	1.35	0.54	1.87	–	–	–	–
CCOc1nn(CCO)c2c1/C=C/c1n[nH]c3cc(F)c(cc13)-c1cnn(C)c1O[C@H](C)CN(CC)C2 [Ex. 277, 2-[(10R,17E)-16-ethoxy-12-ethyl-19-fluoro-8,10-dimethyl-2,8,10,11,12,13-hexahydro-14H-3,5-ethenotripyrazolo[3,4-f:3′,4′-j:4″,3″-n][1,4]oxazacyclopentadecin-14-yl]ethan-1-ol]	–	–	–	–	–	9.87	–	–	2.99	4.28	2.77	51.1

Second part, the molecule after the results:

IC50 (EGFR WT) [nM]	IC50 [1] [nM]	IC50 (EGFR (D770_N771insNPG)) [nM]	IC50 (EGFR L858R mutant) [nM]	IC50 (EGFR Δ746-750 mutant) [nM]	IC50 (ALK) [nM]	IC50 [2] [nM]	IC50 (EGFR L858R/T790M mutant) [nM]	IC50 (CLK2) [nM]	IC50 (CLK1) [nM]	IC50 (CLK4) [nM]	IC50 (CLK3) [nM]	Compound
–	–	–	–	–	1.46	–	–	1.03	0.8	2.25	241	CC(C)Oc1nn(CCO)c2c1/C=C/c1n[nH]c3ccc(cc13)-c1cnn(C)c1O[C@@H](C(F)F)CN(C)C2 (single isomer, unassigned) [Ex. 275]
–	–	–	–	–	2	–	–	1.35	1.38	4.05	94.5	CC(C)Oc1nn(CCO)c2c1/C=C/c1n[nH]c3cc(F)c(cc13)-c1cnn(C)c1O[C@@H](C)[C@H]1CCCN1C2 (single isomer, unassigned) [Example 256]
–	–	–	–	–	20.8	–	–	418	1.35	0.847	1.92	Cc1noc2c1/C=C/c1n[nH]c3ccc(cc13)-c1cnn(C)c1OCCOC2 [Example 321, (17E)-8,16-dimethyl-2,10,11,13-tetrahydro-8H-3,5-ethenodipyrazolo[3′,4′:10,11;4″,3″:14,15] [1,4]dioxacyclopentadecino[7,6-d][1,2]oxazole]
–	–	–	–	–	5.79	–	–	36.5	0.332	0.225	0.862	CCc1nn(C)c2c1/C=C/c1n[nH]c3ccc(cc13)-c1cnn(C)c1OCCOC2 [Example 300, (17E)-16-ethyl-8,14-dimethyl-2,8,10,11,13,14-hexahydro-3,5-etheno[1,4]dioxacyclopentadecino[10,11-c:15,14-c′:6,7-c″]tripyrazole]
–	–	–	–	–	1.82	–	–	0.24	0.32	1.31	131	CCOc1nn(CCO)c2c1/C=C/c1n[nH]c3cc(F)c(cc13)-c1cnn(C)c1O[C@@H](C)CN(CC)C2 [Example 288, 2-[(10S,17E)-16-ethoxy-12-ethyl-19-fluoro-8,10-dimethyl-2,8,10,11,12,13-hexahydro-14H-3,5-ethenotripyrazolo[3,4-f:3′,4′-j:4″,3″- n][1,4]oxazacyclopentadecin-14-yl]ethan-1-ol]
584	99.6	1040	135	101	6.93	30.9	–	–	–	–	–	Cc1nn(C)c2c1/C=C/c1n[nH]c3ccc(cc13)-c1cnn(C)c1O[C@@H](C)CCO2 [Ex. 35, (10S,17E)-8,10,14,16-tetramethyl-2,11,12,14-tetrahydro-8H,10H-3,5-etheno[1,5]dioxacyclopentadecino[10,11-c:15,14-c′:6,7-c″ ]tripyrazole]
–	–	–	–	–	27.5	–	–	–	–	–	–	Cc1nn(C)c2c1/C=C/c1n[nH]c3ccc(cc13)-c1cnn(C)c1OCCOC2 [Example 303, (17E)-8,14,16-trimethyl-2,8,10,11,13,14-hexahydro-3,5-etheno[1,4]dioxacyclopentadecino[10,11-c:15,14-c′:6,7-c″]tripyrazole]
884	–	377	104	44.8	2.09	24.3	–	–	–	–	–	Cc1nn(C)c2c1/C=C/c1n[nH]c3ccc(cc13)-c1cnn(C)c1OCCCO2 [Ex. 8, (17E)-8,14,16-trimethyl-2,11,12,14-tetrahydro-8H,10H-3,5-etheno[1,5]dioxacyclopentadecino[10,11-c:15,14-c′:6,7-c″]tripyrazole]
–	–	–	–	–	59.9	–	–	34.9	1.04	0.636	0.322	Cc1snc2c1/C=C/c1n[nH]c3ccc(cc13)-c1cnn(C)c1OCCOC2 [Example 322, (17E)-8,16-dimethyl-2,8,10,11-tetrahydro-13H-3,5-ethenodipyrazolo[3′,4′:10,11;4″,3″:14,15] [1,4]dioxacyclopentadecino[6,7-c][1,2]thiazole]
–	–	–	–	–	15.4	–	–	–	–	–	–	CCN1Cc2c(c(OC)nn2[C@@H](C)CO)/C=C/c2n[nH]c3cc(F)c(cc23)-c2cnn(C)c2O[C@H](C)C1 [Example 289, (2S)-2-[(10R,17E)-12-ethyl-19-fluoro-16-methoxy-8,10-dimethyl-2,8,10,11,12,13-hexahydro-14H-3,5-ethenotripyrazolo[3,4-f:3′,4′-j:4″,3″-n][1,4]oxazacyclopentadecin-14-yl]propan-1-ol]
